Results: PubChem BioAssay AID2060903 (Molecular Pharmacology Branch, DTP, NCI, 2025)
pIC50: −log10 of the molar value. Several values for one entry are separate records, joined by “and”; a condition that tells them apart may be missing. Equal values may be shown once.

Test system: 377384-186-R-J1-PDC complex spheroid viability
Experiment: Anticancer human tumor 377384-186-R-J1-PDC patient-derived pancreatic carcinoma cell line growth inhibition [RAS]
Settings: for pIC50: curve of first compound; for viability, T/C: stronger effect = lower value; active = viability on the fitted dose curve at most 10% of control; inactive = the rest
Procedure, shortened: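 Multi-cell-type spheroids: tumor cells plus HUVEC endothelial cells and mesenchymal stem cells. RAS-pathway inhibitors were combined with targeted agents, each dosed in half-log steps down from clinical Cmax, or from 10 microM when Cmax was unknown.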
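Note: spheroids exposed to compounds for seven days before readout.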

CC1(O)CCCC1n1c(=O)c(C(F)F)cc2cnc(NC3CCN(S(C)(=O)=O)CC3)nc21 (configuration not stated) + C=CC(=O)N1CCN(c2nc(OCC3CCCN3C)nc3c(F)c(-c4nc(N)cc(C)c4C(F)(F)F)c(Cl)cc23)C(C)C1
7.17: pIC50 (second compound 1 µM)
inactive: viability, T/C (second compound 0.00316 µM, first compound 0.0316 µM) 81.1% | viability, T/C (second compound 0.00316 µM, first compound 0.1 µM) 49.7% | viability, T/C (second compound 0.00316 µM, first compound 0.316 µM) 17% | viability, T/C (second compound 0.00316 µM, first compound 1 µM) 24.2% | viability, T/C (second compound 0.00316 µM, first compound 3.16 µM) 33.9% | viability, T/C (second compound 0.00316 µM, first compound 10 µM) 4.64% | viability, T/C (second compound 0.01 µM, first compound 0.0316 µM) 89.5% | viability, T/C (second compound 0.01 µM, first compound 0.1 µM) 45.1% | viability, T/C (second compound 0.01 µM, first compound 0.316 µM) 21.4% | viability, T/C (second compound 0.01 µM, first compound 1 µM) 20.8% | viability, T/C (second compound 0.01 µM, first compound 3.16 µM) 28.8% | viability, T/C (second compound 0.01 µM, first compound 10 µM) 4.18% | viability, T/C (second compound 0.0316 µM, first compound 0.0316 µM) 73.4% | viability, T/C (second compound 0.0316 µM, first compound 0.1 µM) 49% | viability, T/C (second compound 0.0316 µM, first compound 0.316 µM) 20.9% | viability, T/C (second compound 0.0316 µM, first compound 1 µM) 20.7% | viability, T/C (second compound 0.0316 µM, first compound 3.16 µM) 29.1% | viability, T/C (second compound 0.0316 µM, first compound 10 µM) 5.27% | viability, T/C (second compound 0.1 µM, first compound 0.0316 µM) 79.3% | viability, T/C (second compound 0.1 µM, first compound 0.1 µM) 42.1% | viability, T/C (second compound 0.1 µM, first compound 0.316 µM) 20.4% | viability, T/C (second compound 0.1 µM, first compound 1 µM) 24.4% | viability, T/C (second compound 0.1 µM, first compound 3.16 µM) 29.3% | viability, T/C (second compound 0.1 µM, first compound 10 µM) 4.69% | viability, T/C (second compound 0.316 µM, first compound 0.0316 µM) 74.3% | viability, T/C (second compound 0.316 µM, first compound 0.1 µM) 42.8% | viability, T/C (second compound 0.316 µM, first compound 0.316 µM) 17.7% | viability, T/C (second compound 0.316 µM, first compound 1 µM) 21.5% | viability, T/C (second compound 0.316 µM, first compound 3.16 µM) 33% | viability, T/C (second compound 0.316 µM, first compound 10 µM) 5.33% | viability, T/C (second compound 1 µM, first compound 0.0316 µM) 69.4% | viability, T/C (second compound 1 µM, first compound 0.1 µM) 39.9% | viability, T/C (second compound 1 µM, first compound 0.316 µM) 19.7% | viability, T/C (second compound 1 µM, first compound 1 µM) 22.5% | viability, T/C (second compound 1 µM, first compound 3.16 µM) 32.5% | viability, T/C (second compound 1 µM, first compound 10 µM) 6.56%
7.01: pIC50 (second compound 0.00316 µM)
7.06: pIC50 (second compound 0.01 µM)
7.02: pIC50 (second compound 0.0316 µM)
7.11: pIC50 (second compound 0.1 µM) | pIC50 (second compound 0.316 µM)

CCn1c(-c2cc(N3CCN(C)CC3)cnc2C(C)OC)c2c3cc(ccc31)-c1csc(n1)CC(NC(=O)C1CC1C)C(=O)N1CCCC(N1)C(=O)OCC(C)(C)C2 (configuration not stated)
inactive: viability, T/C (compound 0.000949 µM) 51.8% [middle of 8 runs] | viability, T/C (compound 0.003 µM) 21.4% [middle of 8 runs]
active: viability, T/C (compound 0.00949 µM) 5.65% [middle of 8 runs] | viability, T/C (compound 0.03 µM) 2.68% [middle of 8 runs] | viability, T/C (compound 0.0949 µM) 2.25% [middle of 8 runs] | viability, T/C (compound 0.3 µM) 1.95% [middle of 7 runs]

CC1(C)CCC(Nc2ncc(C(F)(F)F)c(-c3c[nH]c4c(P(C)(C)=O)c(C#N)ccc34)n2)CN1 (configuration not stated) + C=CC(=O)N1CCN(c2nc(OCC3CCCN3C)nc3c(F)c(-c4nc(N)cc(C)c4C(F)(F)F)c(Cl)cc23)C(C)C1
inactive: viability, T/C (second compound 0.00316 µM, first compound 0.000949 µM) 83.3% | viability, T/C (second compound 0.00316 µM, first compound 0.003 µM) 49.5% | viability, T/C (second compound 0.00316 µM, first compound 0.00949 µM) 27.8% | viability, T/C (second compound 0.00316 µM, first compound 0.03 µM) 15.9% | viability, T/C (second compound 0.00316 µM, first compound 0.0949 µM) 14.4% | viability, T/C (second compound 0.00316 µM, first compound 0.3 µM) 13.2% | viability, T/C (second compound 0.01 µM, first compound 0.000949 µM) 89% | viability, T/C (second compound 0.01 µM, first compound 0.003 µM) 57.6% | viability, T/C (second compound 0.01 µM, first compound 0.00949 µM) 28.6% | viability, T/C (second compound 0.01 µM, first compound 0.03 µM) 17% | viability, T/C (second compound 0.01 µM, first compound 0.0949 µM) 13.9% | viability, T/C (second compound 0.01 µM, first compound 0.3 µM) 14.7% | viability, T/C (second compound 0.0316 µM, first compound 0.000949 µM) 79.1% | viability, T/C (second compound 0.0316 µM, first compound 0.003 µM) 60.1% | viability, T/C (second compound 0.0316 µM, first compound 0.00949 µM) 26% | viability, T/C (second compound 0.0316 µM, first compound 0.03 µM) 18.8% | viability, T/C (second compound 0.0316 µM, first compound 0.0949 µM) 14.8% | viability, T/C (second compound 0.0316 µM, first compound 0.3 µM) 15% | viability, T/C (second compound 0.1 µM, first compound 0.000949 µM) 74.6% | viability, T/C (second compound 0.1 µM, first compound 0.003 µM) 46.9% | viability, T/C (second compound 0.1 µM, first compound 0.00949 µM) 27.7% | viability, T/C (second compound 0.1 µM, first compound 0.03 µM) 17.5% | viability, T/C (second compound 0.1 µM, first compound 0.0949 µM) 14.5% | viability, T/C (second compound 0.1 µM, first compound 0.3 µM) 12.5% | viability, T/C (second compound 0.316 µM, first compound 0.000949 µM) 76.1% | viability, T/C (second compound 0.316 µM, first compound 0.003 µM) 51.3% | viability, T/C (second compound 0.316 µM, first compound 0.00949 µM) 26.7% | viability, T/C (second compound 0.316 µM, first compound 0.03 µM) 16.5% | viability, T/C (second compound 0.316 µM, first compound 0.0949 µM) 13.6% | viability, T/C (second compound 0.316 µM, first compound 0.3 µM) 13.2% | viability, T/C (second compound 1 µM, first compound 0.000949 µM) 78.7% | viability, T/C (second compound 1 µM, first compound 0.003 µM) 52.6% | viability, T/C (second compound 1 µM, first compound 0.00949 µM) 25% | viability, T/C (second compound 1 µM, first compound 0.03 µM) 17.4% | viability, T/C (second compound 1 µM, first compound 0.0949 µM) 16% | viability, T/C (second compound 1 µM, first compound 0.3 µM) 12.5%
8.58: pIC50 (second compound 0.1 µM)
8.50: pIC50 (second compound 0.316 µM)
8.37: pIC50 (second compound 0.0316 µM)
8.48: pIC50 (second compound 1 µM)
8.53: pIC50 (second compound 0.00316 µM)
8.39: pIC50 (second compound 0.01 µM)

O=C(c1ccc(F)c(F)c1Nc1ccc(I)cc1F)N1CC(O)([C@@H]2CCCCN2)C1
39.2 nM [middle of 4 runs]: IC50 (curve of compound)
inactive: viability, T/C (compound 0.00316 µM) 85.8% [middle of 4 runs] | viability, T/C (compound 0.01 µM) 79.5% [middle of 4 runs] | viability, T/C (compound 0.0316 µM) 56.3% [middle of 4 runs] | viability, T/C (compound 0.1 µM) 21.3% (2×) and 13.7% and 21.1%
active: viability, T/C (compound 0.316 µM) 2.49% [middle of 4 runs] | viability, T/C (compound 1 µM) 0.68% [middle of 4 runs]
